Measured values as given in PubChem BioAssay (NCI).
Where “and” joins values, the source holds several entries; their conditions need not be identical. Equal values may be shown once.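 Step 1: Grow cells in 96-well plates. Step 2: Expose to compound for 48 hours at 5 concentrations. Step 3: Interpolate endpoints linearly; if unreached, use highest concentration. Abbreviation: GI50, concentration required for 50% inhibition of growth. The concentration for full growth arrest is given as TGI.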

How the values were obtained:
Assay in all cases: NCI-60 cell line screen, 48 h
TK-10 renal = test system: TK-10 renal
HOP-92 NSCLC = test system: HOP-92 NSCLC
BT-549 breast = test system: BT-549 breast
UO-31 renal = test system: UO-31 renal
UACC-62 melanoma = test system: UACC-62 melanoma
MDA-MB-435 = test system: MDA-MB-435
MALME-3M melanoma = test system: MALME-3M melanoma
SR leukemia = test system: SR leukemia
U251 CNS = test system: U251 CNS
PC-3 prostate = test system: PC-3 prostate

With `CCOC(=O)Nc1nc2cc(OCC)ccc2s1` the GI50 (TK-10 renal) was over 72.9 µM, the TGI (TK-10 renal) was over 100 µM and the GI50 (HOP-92 NSCLC) was over 100000 nM. For the same compound, the TGI (HOP-92 NSCLC) was over 100 µM, the GI50 (BT-549 breast) was over 100 µM and the TGI (BT-549 breast) was over 100 µM. The GI50 (UO-31 renal) was over 100000 nM, the TGI (UO-31 renal) was over 100 µM and the GI50 (UACC-62 melanoma) was 58300 nM. The TGI (UACC-62 melanoma) was over 100 µM, the GI50 (MDA-MB-435) was 923 nM and the TGI (MDA-MB-435) was 5.15 µM. The GI50 (MALME-3M melanoma) was over 100 µM, the TGI (MALME-3M melanoma) was over 100 µM and the GI50 (SR leukemia) was 1520 nM. It also gave a TGI (SR leukemia) of over 100 µM, a GI50 (U251 CNS) of 26800 nM and a TGI (U251 CNS) of over 100 µM. The GI50 (PC-3 prostate) was over 100 µM and the TGI (PC-3 prostate) was over 100 µM.

With `O=C(Nc1ccc(Br)cc1)Nc1nn(C(=O)Nc2ccc(Br)cc2)c2ccccc12` the GI50 (TK-10 renal) was 39.2 µM, the TGI (TK-10 renal) was over 100 µM and the GI50 (HOP-92 NSCLC) was 24400 nM. The TGI (HOP-92 NSCLC) was over 65.5 µM, the GI50 (BT-549 breast) was 34.5 µM and the TGI (BT-549 breast) was over 93.7 µM. It also gave a GI50 (UO-31 renal) of over 100000 nM, a TGI (UO-31 renal) of over 100 µM and a GI50 (UACC-62 melanoma) of 36500 nM. It also gave a TGI (UACC-62 melanoma) of over 100 µM, a GI50 (MDA-MB-435) of over 100000 nM and a TGI (MDA-MB-435) of over 100 µM. The GI50 (MALME-3M melanoma) was over 44.3 µM, the TGI (MALME-3M melanoma) was over 85.3 µM and the GI50 (SR leukemia) was 30500 nM. The TGI (SR leukemia) was over 100 µM, the GI50 (U251 CNS) was 13400 nM and the TGI (U251 CNS) was 43.6 µM. For the same compound, the GI50 (PC-3 prostate) was over 51.6 µM and the TGI (PC-3 prostate) was over 100 µM.

`Oc1c(Cl)cc(Cl)cc1Sc1cc(Cl)cc(Cl)c1O` was tested, and the GI50 (TK-10 renal) was 3.99 µM, the TGI (TK-10 renal) was 11.6 µM and the GI50 (HOP-92 NSCLC) was 1650 nM. For the same compound, the TGI (HOP-92 NSCLC) was 4.47 µM and 4.65 µM, the GI50 (BT-549 breast) was 2.81 µM and the TGI (BT-549 breast) was 8.09 µM. The GI50 (UO-31 renal) was 2460 nM and 2020 nM, the TGI (UO-31 renal) was 11.6 µM and 9.32 µM and the GI50 (UACC-62 melanoma) was 3570 nM and 2020 nM. For the same compound, the TGI (UACC-62 melanoma) was 14.1 µM and 5.44 µM, the GI50 (MDA-MB-435) was 3420 nM and 2720 nM and the TGI (MDA-MB-435) was 12.4 µM and 9 µM. For the same compound, the GI50 (MALME-3M melanoma) was 3.32 µM and 2.51 µM, the TGI (MALME-3M melanoma) was 13.7 µM and 6.83 µM and the GI50 (SR leukemia) was 3090 nM and 4960 nM. For the same compound, the TGI (SR leukemia) was 13.6 µM and > 100 µM, the GI50 (U251 CNS) was 3010 nM and 2740 nM and the TGI (U251 CNS) was 11.2 µM and 10.5 µM. For the same compound, the GI50 (PC-3 prostate) was 3.21 µM and 2.89 µM and the TGI (PC-3 prostate) was 10.5 µM and 12.9 µM.

In the case of `Nc1cc2[nH]cnc2c(=O)[nH]1`, the TGI (TK-10 renal) is reported as over 300 µM, the TGI (HOP-92 NSCLC) is reported as over 300 µM and the TGI (BT-549 breast) is reported as over 300 µM. For the same compound, the TGI (UO-31 renal) was over 300 µM, the TGI (UACC-62 melanoma) was over 300 µM and the TGI (MDA-MB-435) was over 300 µM. The TGI (MALME-3M melanoma) was 298 µM, the TGI (SR leukemia) was over 94.9 µM and the TGI (U251 CNS) was over 300 µM. The TGI (PC-3 prostate) was over 300 µM.

Work on `C[C@]12CC[C@@H](OC(=O)N(CCCl)N=O)C[C@@H]1CC[C@@H]1[C@@H]2CC[C@]2(C)C(=O)CC[C@@H]12` yielded a GI50 (TK-10 renal) of 12 µM, a TGI (TK-10 renal) of 33.1 µM and a GI50 (HOP-92 NSCLC) of 6790 nM. It also gave a TGI (HOP-92 NSCLC) of 35.9 µM, a GI50 (BT-549 breast) of 14.2 µM and a TGI (BT-549 breast) of 33.2 µM. For the same compound, the GI50 (UO-31 renal) was 4220 nM, the TGI (UO-31 renal) was 18.1 µM and the GI50 (UACC-62 melanoma) was 1460 nM. It also gave a TGI (UACC-62 melanoma) of 25.6 µM, a GI50 (MDA-MB-435) of 10600 nM and a TGI (MDA-MB-435) of 44.1 µM. The GI50 (MALME-3M melanoma) was 18.1 µM, the TGI (MALME-3M melanoma) was 50.2 µM and the GI50 (SR leukemia) was 15.6 nM. For the same compound, the TGI (SR leukemia) was 6.82 µM, the GI50 (U251 CNS) was 851 nM and the TGI (U251 CNS) was 15.7 µM. For the same compound, the GI50 (PC-3 prostate) was 11.5 µM and the TGI (PC-3 prostate) was over 96 µM.

`CC[C@]1(O)C[C@@H]2CN(CCc3c([nH]c4ccccc34)[C@@](C(=O)OC)(c3cc4c(cc3OC)N(C)[C@H]3[C@@](O)(C(N)=O)[C@H](O)[C@]5(CC)[C@@H]6C[C@@H]6CN6CC[C@]43[C@@H]65)C2)C1` showed a GI50 (TK-10 renal) of 13 µM, a TGI (TK-10 renal) of over 33.3 µM and a GI50 (HOP-92 NSCLC) of under 3.33 nM. It also gave a TGI (HOP-92 NSCLC) of 1.82 µM, a GI50 (BT-549 breast) of under 0.00333 µM and a TGI (BT-549 breast) of 0.708 µM. The GI50 (UO-31 renal) was 548 nM, the TGI (UO-31 renal) was over 33.3 µM and the GI50 (UACC-62 melanoma) was under 3.33 nM. The TGI (UACC-62 melanoma) was over 33.3 µM, the GI50 (MDA-MB-435) was under 3.33 nM and the TGI (MDA-MB-435) was under 0.00333 µM. For the same compound, the GI50 (MALME-3M melanoma) was 4.9 µM, the TGI (MALME-3M melanoma) was 32.1 µM and the GI50 (SR leukemia) was under 3.33 nM. It also gave a TGI (SR leukemia) of 10.2 µM, a GI50 (U251 CNS) of under 3.33 nM and a TGI (U251 CNS) of over 33.3 µM. The GI50 (PC-3 prostate) was under 0.00333 µM and the TGI (PC-3 prostate) was over 33.3 µM.

In the case of `N=c1ccc2nc3c(cc(N)c4ccccc43)oc-2c1`, the GI50 (TK-10 renal) is reported as 0.737 µM, the TGI (TK-10 renal) is reported as 2.4 µM and the GI50 (HOP-92 NSCLC) is reported as 1180 nM. For the same compound, the TGI (HOP-92 NSCLC) was 3.6 µM, the GI50 (BT-549 breast) was 0.268 µM and the TGI (BT-549 breast) was 1.27 µM. The GI50 (UO-31 renal) was 333 nM, the TGI (UO-31 renal) was 0.958 µM and the GI50 (UACC-62 melanoma) was 197 nM. The TGI (UACC-62 melanoma) was 0.539 µM, the GI50 (MDA-MB-435) was 182 nM and the TGI (MDA-MB-435) was 0.338 µM. The GI50 (MALME-3M melanoma) was 0.169 µM, the TGI (MALME-3M melanoma) was 0.362 µM and the GI50 (SR leukemia) was 285 nM. For the same compound, the TGI (SR leukemia) was 1.29 µM, the GI50 (U251 CNS) was 223 nM and the TGI (U251 CNS) was 0.664 µM. The GI50 (PC-3 prostate) was 0.217 µM and the TGI (PC-3 prostate) was 1.71 µM.

`O=C(N/N=C/c1ccc(Cl)cc1)c1[nH]c2ccc(Cl)cc2c1-c1ccccc1` showed a GI50 (TK-10 renal) of 3.3 µM, a TGI (TK-10 renal) of 59.7 µM and a GI50 (HOP-92 NSCLC) of 424 nM. For the same compound, the TGI (HOP-92 NSCLC) was 41.5 µM, the GI50 (BT-549 breast) was 0.146 µM and the TGI (BT-549 breast) was 3.58 µM. For the same compound, the GI50 (UO-31 renal) was 268 nM, the TGI (UO-31 renal) was over 65 µM and the GI50 (UACC-62 melanoma) was 191 nM. It also gave a TGI (UACC-62 melanoma) of over 52.5 µM, a GI50 (MDA-MB-435) of 245 nM and a TGI (MDA-MB-435) of 0.72 µM. It also gave a GI50 (MALME-3M melanoma) of 17.8 µM, a TGI (MALME-3M melanoma) of 76.4 µM and a GI50 (SR leukemia) of 133 nM. For the same compound, the TGI (SR leukemia) was 2.09 µM, the GI50 (U251 CNS) was 255 nM and the TGI (U251 CNS) was 4.68 µM. The GI50 (PC-3 prostate) was 0.2 µM and the TGI (PC-3 prostate) was 44.8 µM.

`COc1cc2ncnc3c2cc1OCCCCCN(C)Cc1ccc(Br)cc1N3` was tested, and the GI50 (TK-10 renal) was 0.186 µM and 0.166 µM, the TGI (TK-10 renal) was over 100 µM and the GI50 (HOP-92 NSCLC) was 3610 nM and 1000 nM. For the same compound, the TGI (HOP-92 NSCLC) was 71.5 µM and > 10 µM, the GI50 (BT-549 breast) was 21.8 µM and 6.87 µM and the TGI (BT-549 breast) was over 100 µM. For the same compound, the GI50 (UO-31 renal) was 285 nM and 267 nM, the TGI (UO-31 renal) was over 100 µM and the GI50 (UACC-62 melanoma) was 2350 nM and 969 nM. The TGI (UACC-62 melanoma) was over 100 µM, the GI50 (MDA-MB-435) was 8630 nM and 7390 nM and the TGI (MDA-MB-435) was over 100 µM. For the same compound, the GI50 (MALME-3M melanoma) was 1.47 µM and 6.85 µM, the TGI (MALME-3M melanoma) was 23.3 µM and > 10 µM and the GI50 (SR leukemia) was 9250 nM and 3380 nM. The TGI (SR leukemia) was over 100 µM, the GI50 (U251 CNS) was 34300 nM and 5330 nM and the TGI (U251 CNS) was over 100 µM. For the same compound, the GI50 (PC-3 prostate) was 4.65 µM and 3.85 µM and the TGI (PC-3 prostate) was over 100 µM.

`COc1cc(/C=C2\CN(C(=O)CCN3CCC(=NO)CC3)C/C(=C\c3cc(OC)c(OC)c(OC)c3)C2=O)cc(OC)c1OC` showed a GI50 (TK-10 renal) of 1.18 µM, a TGI (TK-10 renal) of 2.8 µM and a GI50 (HOP-92 NSCLC) of 676 nM. For the same compound, the TGI (HOP-92 NSCLC) was 2.04 µM, the GI50 (BT-549 breast) was 0.332 µM and the TGI (BT-549 breast) was 1.23 µM. The GI50 (UO-31 renal) was 1110 nM, the TGI (UO-31 renal) was 2.51 µM and the GI50 (UACC-62 melanoma) was 182 nM. The TGI (UACC-62 melanoma) was 0.411 µM, the GI50 (MDA-MB-435) was 239 nM and the TGI (MDA-MB-435) was 0.637 µM. The GI50 (MALME-3M melanoma) was 0.211 µM, the TGI (MALME-3M melanoma) was 0.579 µM and the GI50 (SR leukemia) was 255 nM. The TGI (SR leukemia) was over 27.7 µM, the GI50 (U251 CNS) was 291 nM and the TGI (U251 CNS) was 1.01 µM. The GI50 (PC-3 prostate) was 0.298 µM and the TGI (PC-3 prostate) was 1.12 µM.
